From the supplement of paper PMC10307832

Assays:
Test in all cases: relative viability (nuclei count vs DMSO), 5 days (fraction); higher = more cells survive
[1] = compound: O=C(Nc1cccc(C(F)(F)F)c1)Nc1cc(S(=O)(=O)NC2CC2)ccc1-c1ccsc1 [AGI-6780] + Cc1nc(Nc2ncc(C(=O)Nc3c(C)cccc3Cl)s2)cc(N2CCN(CCO)CC2)n1 [Dasatinib] (partner 0.075 µM)
Summary of the method: (§1)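 Lung cancer cell lines were seeded in 1536-well plates and dosed by pin tool the next day, with either a single drug or a fixed anchor-drug dose combined with five library-drug doses (not always all listed) spaced in √10 steps. Five days later, one step fixed the cells and stained their nuclei (final 0.05% Triton X-100, 1% formaldehyde, 1 ug/ml Hoechst), and nuclei were counted on 4× images. Relative viability is the nuclei count in treated wells divided by the count in vehicle wells, and each value is the median of duplicate plates.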

[2] = compound: O=C(Nc1cccc(C(F)(F)F)c1)Nc1cc(S(=O)(=O)NC2CC2)ccc1-c1ccsc1 [AGI-6780] + CC(C)C[C@H](NC(=O)[C@H](Cc1ccccc1)NC(=O)c1cnccn1)B(O)O [Bortezomib] (partner 0.002 µM)
Summary of the method: as §1

[3] = compound: O=C(Nc1cccc(C(F)(F)F)c1)Nc1cc(S(=O)(=O)NC2CC2)ccc1-c1ccsc1 [AGI-6780] + CC1(C)CCC(c2ccc(Cl)cc2)=C(CN2CCN(c3ccc(C(=O)NS(=O)(=O)c4ccc(N[C@H](CCN5CCOCC5)CSc5ccccc5)c(S(=O)(=O)C(F)(F)F)c4)cc3)CC2)C1 [Navitoclax] (partner 0.5 µM)
Summary of the method: as §1

[4] = compound: O=C(Nc1cccc(C(F)(F)F)c1)Nc1cc(S(=O)(=O)NC2CC2)ccc1-c1ccsc1 [AGI-6780] + CCNC(=O)c1noc(-c2cc(C(C)C)c(O)cc2O)c1-c1ccc(CN2CCOCC2)cc1 [Luminespib] (partner 0.01 µM)
Summary of the method: as §1

| Cell Line | relative viability ([1]; first compound 0.08 µM) | relative viability ([1]; first compound 0.253 µM) | relative viability ([1]; first compound 0.8 µM) | relative viability ([1]; first compound 2.53 µM) | relative viability ([1]; first compound 8 µM) | relative viability ([2]; first compound 0.08 µM) | relative viability ([2]; first compound 0.253 µM) | relative viability ([2]; first compound 0.8 µM) | relative viability ([2]; first compound 2.53 µM) | relative viability ([2]; first compound 8 µM) | relative viability ([3]; first compound 0.08 µM) | relative viability ([3]; first compound 0.253 µM) | relative viability ([3]; first compound 0.8 µM) | relative viability ([3]; first compound 2.53 µM) | relative viability ([3]; first compound 8 µM) | relative viability ([4]; first compound 0.08 µM) | relative viability ([4]; first compound 0.253 µM) | relative viability ([4]; first compound 0.8 µM) | relative viability ([4]; first compound 2.53 µM) | relative viability ([4]; first compound 8 µM) |
| --- | --- | --- | --- | --- | --- | --- | --- | --- | --- | --- | --- | --- | --- | --- | --- | --- | --- | --- | --- | --- |
| LXF-289 | 0.228 | 0.213 | 0.192 | 0.155 | 0.204 | 1.02 | 0.993 | 0.976 | 1.03 | 0.957 | 0.967 | 0.939 | 0.936 | 0.987 | 0.939 | 0.776 | 0.723 | 0.679 | 0.606 | 0.659 |
| NCI-H23 | 0.922 | 0.701 | 0.752 | 0.378 | 0.735 | 1.08 | 1.2 | 1.02 | 0.86 | 1.19 | 0.844 | 0.951 | 0.835 | 0.555 | 0.802 | – | 0.202 | 0.231 | – | 0.205 |
| NCI-H322M | 0.253 | 0.259 | 0.242 | 0.237 | 0.261 | 1.08 | 1.15 | 1.35 | 1.27 | 1.39 | 1.11 | 1.14 | 1.28 | 1.24 | 1.21 | 0.889 | 0.901 | 0.912 | 0.744 | 0.814 |
| NCI-H441 | 0.669 | 0.639 | 0.597 | 0.548 | 0.472 | 0.514 | 0.601 | 0.831 | 0.45 | 0.387 | 0.702 | 0.993 | 0.604 | 0.487 | 0.663 | 0.346 | 0.333 | 0.41 | 0.302 | 0.361 |
| NCI-H460 | 0.495 | 0.583 | 0.468 | 0.444 | 0.541 | 1.18 | 1.09 | 1.21 | 1.08 | 1.05 | 1.14 | 1.03 | 1.04 | 1.14 | 1.14 | 0.0337 | 0.0309 | 0.0296 | 0.0322 | 0.0345 |
| NCI-H520 | 0.197 | 0.185 | 0.216 | 0.177 | 0.194 | 0.577 | 0.661 | 0.63 | 0.697 | 0.779 | 1.04 | 1.12 | 1.18 | 1.05 | 1.05 | 0.23 | 0.255 | 0.234 | 0.178 | 0.231 |
| NCI-H596 | 0.582 | 0.583 | 0.624 | – | 0.665 | – | 1.04 | 0.761 | 0.918 | 1.13 | 0.91 | 1.02 | 0.927 | 0.774 | 0.929 | 1 | 0.995 | 0.982 | – | 1.09 |
| NCI-H647 | 0.186 | 0.202 | 0.23 | 0.175 | 0.448 | 1 | 1.01 | 0.735 | 1.05 | 1.41 | 1.2 | 1.22 | 1.33 | 1.09 | 1.19 | 0.0935 | 0.181 | 0.12 | 0.103 | 0.118 |
| NCI-H727 | 0.35 | 0.297 | 0.386 | 0.314 | 0.398 | 1.08 | 0.987 | 0.786 | 0.648 | 0.819 | 0.493 | 0.448 | 0.474 | 0.369 | 0.494 | 0.322 | 0.545 | 0.347 | 0.287 | 0.468 |
| NCI-H838 | 0.312 | 0.357 | 0.307 | 0.261 | 0.321 | 0.965 | 0.692 | 0.952 | 1.05 | 1.18 | 1.19 | 1.09 | 1.17 | 1.06 | 1.11 | 0.374 | 0.353 | 0.339 | 0.303 | 0.274 |
| NCI-H1355 | 0.771 | 0.712 | 0.771 | 0.518 | 0.776 | 1.23 | 1.28 | 1.21 | 1.02 | 1.24 | 1.01 | 1.05 | 0.984 | 0.932 | 0.946 | 0.75 | 0.791 | 0.686 | 0.408 | 0.624 |
| NCI-H1437 | 0.371 | 0.493 | 0.404 | 0.306 | 0.342 | 0.562 | 0.569 | 0.703 | 0.563 | 0.747 | 1.19 | 1.06 | 1.12 | 1.07 | 0.966 | 1.21 | 1.06 | 1.17 | 1.22 | 1.1 |
| NCI-H1650 | 0.337 | 0.371 | 0.38 | 0.274 | 0.366 | 0.181 | 0.196 | 0.216 | 0.206 | 0.183 | 1.25 | 1.08 | 1.29 | 1.19 | 1.14 | 0.187 | 0.203 | 0.219 | 0.228 | 0.191 |
| NCI-H1651 | 0.361 | 0.534 | 0.528 | 0.341 | 0.544 | 0.831 | 0.988 | 1 | 0.893 | 0.957 | 1.04 | 1.13 | 1.01 | 0.912 | 0.906 | 0.809 | 0.893 | 0.919 | 0.744 | 0.804 |
| NCI-H1666 | 0.785 | 0.79 | 0.872 | 0.708 | 0.877 | 0.819 | 0.838 | 0.782 | – | 0.857 | 0.985 | 0.894 | 0.909 | – | 0.92 | 1.04 | 1.03 | 1.01 | 0.961 | 1.06 |
| NCI-H1734 | 0.459 | 0.461 | 0.473 | 0.347 | 0.435 | 1.08 | 0.968 | 1.03 | – | 0.935 | 0.889 | 0.814 | 0.778 | – | 0.861 | 0.216 | 0.233 | 0.201 | 0.19 | 0.177 |
